Test results from patent US9172221B2, “Converter building” (ABB Technology AG, priority 2011, dated 2015).

Key:
[1] = toxicity / lethal concentration LC50
[2] = in vivo

| SMILES | risk for human toxicity ([1]; concluded from available results of mammalian HFC (hydrofluorocarbon) tests) | toxicity (in words) [2] | LC50 ([1]; in vivo) |
| --- | --- | --- | --- |
| FC(F)(F)COC(F)(F)F [2,2,2-trifluoroethyl-trifluoromethyl ether] | low risk for human toxicity |  |  |
| O=C(C(F)(F)F)C(F)(C(F)(F)F)C(F)(F)F [C5-ketone, 1,1,1,3,4,4,4-heptafluoro-3-(trifluoromethyl)butan-2-one] |  | practically non-toxic |  |
| O=C(C(F)(F)C(F)(F)F)C(F)(C(F)(F)F)C(F)(F)F [C6-ketone, 1,1,1,2,4,4,5,5,5-Nonafluoro-2-(trifluoromethyl)pentan-3-one] |  | non-toxic | about 100,000 ppm |
